Test results reported in ChEMBL document CHEMBL1131884, “Dicationic 2-fluorenonylcarbapenems: potent anti-MRS agents with improved solubility and pharmacokinetic properties” (Bioorg Med Chem Lett, 1999).
In brackets after ≈: the same amount, converted by molar mass.

Columns and labels:
Staphylococcus sp. = assay: Antibacterial activity against methicillin-resistant coagulase negative Staphylococci (MRCNS); type: functional
Staphylococcus aureus [1] = assay: Antibacterial activity against methicillin-resistant Staphylococcus aureus (MRSA); type: functional
MecA = molecular target: T1, MecA (Staphylococcus aureus, UniProt Q7DHH4); assay: Binding affinity against PBP2a receptor by competition analysis with [3H]benzylpenicillin using cell membrane fractions from the MRSA COL strain.
T1 sequence (Q7DHH4 whole entry): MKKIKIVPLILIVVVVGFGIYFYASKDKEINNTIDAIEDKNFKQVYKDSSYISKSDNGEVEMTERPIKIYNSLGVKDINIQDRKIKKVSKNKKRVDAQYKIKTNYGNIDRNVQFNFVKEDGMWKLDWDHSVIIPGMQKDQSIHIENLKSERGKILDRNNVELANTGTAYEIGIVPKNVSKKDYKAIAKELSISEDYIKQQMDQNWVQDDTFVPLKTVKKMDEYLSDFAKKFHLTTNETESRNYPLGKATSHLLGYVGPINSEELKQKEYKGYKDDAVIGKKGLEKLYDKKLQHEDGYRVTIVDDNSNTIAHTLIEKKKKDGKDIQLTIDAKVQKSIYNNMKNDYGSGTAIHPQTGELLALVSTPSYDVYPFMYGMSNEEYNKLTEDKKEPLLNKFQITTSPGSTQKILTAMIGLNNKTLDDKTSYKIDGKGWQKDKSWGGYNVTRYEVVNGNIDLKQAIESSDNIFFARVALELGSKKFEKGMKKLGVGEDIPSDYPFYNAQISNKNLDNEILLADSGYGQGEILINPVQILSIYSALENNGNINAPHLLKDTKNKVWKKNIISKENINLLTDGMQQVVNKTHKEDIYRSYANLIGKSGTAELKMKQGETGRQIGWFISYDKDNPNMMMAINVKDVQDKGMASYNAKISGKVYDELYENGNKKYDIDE

Bacteria = assay: Antibacterial activity against Gram negative bacteria; type: functional
Mus musculus [2] = assay: In vivo antibacterial activity against MSSA MB 2985 strain at the dose ~4 *10e7 cfu in brain heart broth along with antibiotic by sc administration at 0 hour in mice; type: functional
[3] = Glomerular Filtration Rate(GFR) evaluated in Rhesus monkeys at the dose of 10 mg/kg by iv bolus injection; type: ADME, organism-based; parameters: dose 10 mg/kg, route intravenous; settings: cercopithecidae, in vivo
Mus musculus [4] = assay: In vivo antibacterial activity against MSSA MB 2985 strain at the dose ~4 *10e7 cfu in brain heart broth along with antibiotic by administration at 0 hour in mice; type: functional
Staphylococcus aureus [5] = assay: Antibacterial activity against MSSA (Methicillin-sensitive Staphylococcus aureus); type: functional
Enterococcus faecium = assay: Antibacterial activity against vancomycin-resistant Enterococcal faecium strain; type: functional
[6] = Renal clearance evaluated in Rhesus monkeys at the dose of 10 mg/kg by iv bolus injection; type: ADME, organism-based, Kidney; parameters: dose 10 mg/kg, route intravenous; settings: cercopithecidae, in vivo, read-out: Renal clearance
Streptococcus pneumoniae = assay: Antibacterial activity against penicillin-resistant Streptococcus pneumoniae; type: functional
Enterococcus faecalis [7] = assay: Antibacterial activity against vancomycin-resistant Enterococcus faecalis strain; type: functional
Streptococcus pyogenes = assay: Antibacterial activity against Streptococcus pyogenes; type: functional
Enterococcus faecalis [8] = assay: Antibacterial activity against Enterococcus faecalis; type: functional
[9] = Plasma clearance evaluated in Rhesus monkeys at the dose of 10 mg/kg by iv bolus injection; type: ADME, organism-based; parameters: dose 10 mg/kg, route intravenous; settings: cercopithecidae
Mus musculus [10] = assay: In vivo antibacterial activity against MRSA 76 virginia strain at the dose ~1 *10e7 cfu in 5 percent hog gastric mucin along with antibiotic by sc administration at 0 and +4 hrs in mice; type: functional
[11] = AUC (area under curve) evaluated in Rhesus monkeys at the dose of 10 mg/kg by iv bolus injection; type: ADME, organism-based, Plasma; parameters: dose 10 mg/kg, route intravenous; settings: cercopithecidae, plasma, read-out: AUC
[12] = Half life evaluated in Rhesus monkeys at the dose of 10 mg/kg by iv bolus injection; type: ADME, organism-based; parameters: dose 10 mg/kg, route intravenous; settings: cercopithecidae, in vivo, read-out: Beta t1/2 (converted)
[13] = molecular target: T2, Dipeptidase 1 (Sus scrofa) (UniProt P22412); assay: Susceptibility to mammalian dehydropeptidas, DHP-1(Porcine)
T2 sequence (whole entry): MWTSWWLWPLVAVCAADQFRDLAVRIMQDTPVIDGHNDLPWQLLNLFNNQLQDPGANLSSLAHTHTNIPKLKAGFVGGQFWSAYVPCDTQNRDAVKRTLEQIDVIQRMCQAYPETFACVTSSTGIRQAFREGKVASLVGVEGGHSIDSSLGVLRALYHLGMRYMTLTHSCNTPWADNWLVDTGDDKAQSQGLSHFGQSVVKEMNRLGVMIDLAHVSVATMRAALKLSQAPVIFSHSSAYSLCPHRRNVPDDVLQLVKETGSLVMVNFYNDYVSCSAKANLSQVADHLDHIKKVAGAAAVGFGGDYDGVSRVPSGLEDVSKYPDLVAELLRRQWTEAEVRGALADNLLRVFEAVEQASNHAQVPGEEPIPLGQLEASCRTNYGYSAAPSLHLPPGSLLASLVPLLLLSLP

## C[C@@H](O)[C@H]1C(=O)N2C(C(=O)O)=C(c3ccc4c(c3)-c3ccc(C[N+]56CC[N+](CC(=O)N(C)C)(CC5)CC6)cc3C4=O)[C@H](C)[C@H]12.[Cl-].[Cl-]
Staphylococcus sp.
  MIC50: 4 µg/mL
  MIC90: 16 µg/mL
Staphylococcus aureus [1]
  MIC50: 4 µg/mL
  MIC90: 8 µg/mL
MecA
  IC50: 581 nM

## C[C@@H](O)[C@H]1C(=O)N2C(C(=O)O)=C(c3ccc4c(c3)-c3ccc(C[N+]56CC[N+](CC(=O)Nc7ccccc7)(CC5)CC6)cc3C4=O)[C@H](C)[C@H]12.[Cl-].[Cl-]
Staphylococcus sp.
  MIC50: 2 µg/mL
  MIC90: 4 µg/mL
Staphylococcus aureus [1]
  MIC50: 2 µg/mL
  MIC90: 2 µg/mL
MecA
  IC50: 1780 nM

## C[C@@H](O)[C@H]1C(=O)N2C(C(=O)O)=C(c3ccc4c(c3)-c3ccc(C[N+]56CC[N+](CC#N)(CC5)CC6)cc3C4=O)[C@H](C)[C@H]12.[Cl-].[Cl-]
Staphylococcus sp.
  MIC50: 4 µg/mL
  MIC90: 8 µg/mL
Staphylococcus aureus [1]
  MIC50: 2 µg/mL
  MIC90: 4 µg/mL
MecA
  IC50: 464 nM

## C[C@@H](O)[C@H]1C(=O)N2C(C(=O)O)=C(c3ccc4c(c3)-c3ccc(C[N+]56CC[N+](CC(=O)Nc7ccccn7)(CC5)CC6)cc3C4=O)[C@H](C)[C@H]12.[Cl-].[Cl-]
Staphylococcus sp.
  MIC50: 2 µg/mL
  MIC90: 8 µg/mL
Staphylococcus aureus [1]
  MIC50: 2 µg/mL
  MIC90: 4 µg/mL
MecA
  IC50: 430 nM

## C[C@@H](O)[C@H]1C(=O)N2C(C(=O)O)=C(c3ccc4c(c3)-c3ccc(C[N+]56CC[N+](CC(=O)Nc7ccc(CCO)cc7)(CC5)CC6)cc3C4=O)[C@H](C)[C@H]12.[Cl-].[Cl-]
Staphylococcus sp.
  MIC50: 2 µg/mL
  MIC90: 4 µg/mL
Staphylococcus aureus [1]
  MIC50: 1 µg/mL
  MIC90: 2 µg/mL
MecA
  IC50: 1310 nM

## C[C@@H](O)[C@H]1C(=O)N2C(C(=O)O)=C(c3ccc4c(c3)-c3ccc(C[N+]56CC[N+](CCOc7ccccc7)(CC5)CC6)cc3C4=O)[C@H](C)[C@H]12.[Cl-].[Cl-]
Staphylococcus sp.
  MIC50: 2 µg/mL
  MIC90: 4 µg/mL
Staphylococcus aureus [1]
  MIC50: 1 µg/mL
  MIC90: 2 µg/mL
MecA
  IC50: 566 nM

## C[C@@H](O)[C@H]1C(=O)N2C(C(=O)[O-])=C(c3ccc4c(c3)-c3ccc(C[n+]5ccn(C)c5)cc3C4=O)C[C@H]12
Bacteria
  MIC: 1.37 µg/mL (≈ 2.92 µM)
Mus musculus [2]
  ED50: 0.034 mg/kg
[3]
  GFR: 3.19 mL/min/kg
Mus musculus [4]
  MIC: 0.008 µg/mL (≈ 0.017 µM)
Staphylococcus aureus [5]
  MIC: 0.03 µg/mL (≈ 0.0639 µM)
Staphylococcus sp.
  MIC50: 2 µg/mL (≈ 4.26 µM)
  MIC90: 4 µg/mL (≈ 8.52 µM)
Enterococcus faecium
  MIC: 4 µg/mL (≈ 8.52 µM)
[6]
  CL renal: 2.34 mL/min/kg
Streptococcus pneumoniae
  MIC: < 0.03 µg/mL
Enterococcus faecalis [7]
  MIC: 1 µg/mL (≈ 2.13 µM)
Staphylococcus aureus [1]
  MIC50: 1 µg/mL (≈ 2.13 µM)
  MIC90: 2 µg/mL (≈ 4.26 µM)
Streptococcus pyogenes
  MIC: < 0.031 µg/mL
Enterococcus faecalis [8]
  MIC: 0.125 µg/mL (≈ 0.266 µM)
MecA
  IC50: 1060 nM
[9]
  clearance: 5.56 mL/min/kg
Mus musculus [10]
  ED50: 0.92 mg kg-1 dose-1
  MIC: 1 µg/mL (≈ 2.13 µM)
[11]
  AUC: 30400 ng·h/mL
[12]
  half-life: 1.17 h
[13]
  Rate of hydrolysis: 0.078
